In ChEMBL document CHEMBL3045984, “Resistance to HPPD-inhibiting herbicides in a population of waterhemp (Amaranthus tuberculatus) from Illinois, United States” (2011) one finds Ratio data, which are given here for one compound.

The subject of experiment [1] is Amaranthus tuberculatus. Briefly: Resistance ratio of GR50 for Amaranthus tuberculatus biotype MCR to GR50 for Amaranthus tuberculatus biotype WCS. Type of experiment: functional.
The subject of experiment [2] is Amaranthus tuberculatus. The experiment can be described thus: Resistance ratio of GR50 for Amaranthus tuberculatus biotype MCR to GR50 for Amaranthus tuberculatus biotype ACR. Type of experiment: functional.

Each structure is given as a SMILES string.

Turning to `CS(=O)(=O)c1ccc(C(=O)C2C(=O)CCCC2=O)c([N+](=O)[O-])c1` [MESOTRIONE], the Ratio with Amaranthus tuberculatus [1] was found to be 35; with Amaranthus tuberculatus [2], 10.
